# Results as given in patent publication EP0288563B1, “CYCLIC AMINE DERIVATIVES” (Eisai Co., Ltd., priority 1986, dated 1988).
# Where a name gives a salt, the structure may show the parent alone.
# Assays:
# [1] = system: ischemic brain; assay: Effect of protecting ischemic brain (survival time after ligation of both carotid arteries); format: in vivo, ICR mice; conditions: for Average survival time (min) (average ± S.E.): maximum 6 h, control group 149.9 ± 25.8; for %: survival time relative to control group (100)
# Description: Carotid arteries of both sides of ICR mice (6 to 8 weeks old) were exposed under halothane anesthesia and ligated. The mice thus treated had stroke symptoms such as jumping, rolling and convulsion and almost all of them died within 24 h.
# The compound of the present invention was administered orally to the mice one hour before the ligation and the survival time (maximum: 6 h) was examined as an index of the effect of protecting eschemic brain. In this experiment, the compound was used in the form of a 5% suspension in acacia and a 5% acacia solution was given to the control group.
# [2] = system: nerve cells in the CAI region of the hippocampus; assay: Effect of protecting cells from disorder after ischemia (nerve cell count in hippocampus); format: in vivo, Mongolian gerbils; conditions: counted after one week, normal group 287 ± 6, control group 21 ± 10
# Description: Carotid arteries on both sides of Mongolian gerbils were blocked to realize cerebral ischemia for 5 min. As a result, the nerve cells in the CAI region of the hippocampus disappeared extensively [Karino, T.: Brain Res., 239, 57 to 69 (1982)].
# The compound of the present invention was administered orally to them, while a 5% acacia suspension was administered to the control group. After one hour, the ischemia was realized for 5 min. After one week, the animal was perfused and fixed with 4% neutral formalin transcardially. The treated sample was embedded in paraffin and cut to obtain slices having a thickness of 3 µm. The slices were dyed with hematoxylin-eosin and the number of the nerve cells in the CAI region of the hippocampus of each slice was counted.
# The nerve cell density in the CAI region of the hippocampus was 287/mm in the normal (pseudo-operation) group and that of the control group was as small as 21/mm. Namely, a serious disappearance of the cell was caused by the 5-min ischemia. […]
# [3] = 3 mg/kg p.o. one hour before ligation
# [4] = 10 mg/kg p.o. one hour before ligation
# [5] = 30 mg/kg p.o. one hour before ligation
# [6] = 10 mg/kg p.o. one hour before 5-min ischemia
# [7] = 30 mg/kg p.o. one hour before 5-min ischemia
Structure (SMILES),"Average survival time (min) (average ± S.E.) [1, 3]","Average survival time (min) (average ± S.E.) [1, 4]","Average survival time (min) (average ± S.E.) [1, 5]",% ([1]; 3 mg/kg p.o.) [%],% ([1]; 10 mg/kg p.o.) [%],% ([1]; 30 mg/kg p.o.) [%],Nerve cell density (number/mm) ([2]; 3 mg/kg p.o. one hour before 5-min ischemia),"Nerve cell density (number/mm) [2, 6] [number/mm]","Nerve cell density (number/mm) [2, 7] [number/mm]"
"O=C(CN1CCC(C(=O)c2ccc(F)cc2)CC1)c1ccc2ccccc2c1 [Example 12, 2-[4-p-Fluorobenzoyl)piperidinyl]-2'-acetonaphthone hydrochloride]",213.7 ± 52.3,181.4 ± 43.6,191.1 ± 54.3,143,121,128,62 ± 26,75 ± 32,83 ± 32
c1ccc(CC2CCN(CCc3ccc4ccccc4c3)CC2)cc1 [Example 73],–,150.4 ± 57.6,275.2 ± 58.2,–,100,184,–,69 ± 21,49 ± 8
O=C(CN1CCC(=Cc2ccc(F)cc2)CC1)c1ccc2ccccc2c1 [Example 74],143.3 ± 39.6,205.1 ± 43.6,194.2 ± 49.7,96,137,130,–,–,62 ± 5
